Reference: PMC8197871, “Biochemical and Initial Structural Characterization of the Monocot Chimeric Jacalin OsJAC1” (International Journal of Molecular Sciences, 2021)
Several values for one entry are separate records, joined by “and”; a condition that tells them apart may be missing. Identical values can stand only once.

What was measured:
DIR domain of OsJAC1 [1] = biological target: T1, DIR domain of OsJAC1 (Oryza sativa, UniProt Q306J3, T49I); assay: nano differential scanning fluorimetry; near-UV CD; type: binding; conditions: 50 mM sugar, 4 mM DTT, 50 mM KPi pH 7.4; CD with 1 mM sugar
T1 construct: gene JAC1; isolated dirigent domain SKLQITPCGM...FCPLLKGS; Thr to Ile point mutation (NDKKIGLG); N-terminal His6 tag and thrombin site kept; E. coli BL21(DE3), pET15b(+); dimer/tetramer by SEC
T1 sequence (Q306J3 5-159 T49I): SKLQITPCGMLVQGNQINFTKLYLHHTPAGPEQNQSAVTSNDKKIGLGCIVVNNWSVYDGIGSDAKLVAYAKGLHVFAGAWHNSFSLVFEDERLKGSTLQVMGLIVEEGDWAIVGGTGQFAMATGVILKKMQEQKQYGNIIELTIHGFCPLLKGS

DIR domain of OsJAC1 [2] = biological target: T1, DIR domain of OsJAC1; assay: nano differential scanning fluorimetry; type: binding; conditions: 50 mM sugar, 4 mM DTT, 50 mM KPi pH 7.4
OsJAC1 [3] = biological target: T2, OsJAC1 (Oryza sativa, UniProt Q306J3); assay: nano differential scanning fluorimetry; type: binding; conditions: 50 mM sugar, 4 mM DTT, 50 mM KPi pH 7.4, TM2 = DIR domain transition
T2 construct: gene JAC1; full length, DIR + JRL domains; N-terminal His6 tag and thrombin site kept; E. coli BL21(DE3), pColdIV
T2 sequence (Q306J3 1-306): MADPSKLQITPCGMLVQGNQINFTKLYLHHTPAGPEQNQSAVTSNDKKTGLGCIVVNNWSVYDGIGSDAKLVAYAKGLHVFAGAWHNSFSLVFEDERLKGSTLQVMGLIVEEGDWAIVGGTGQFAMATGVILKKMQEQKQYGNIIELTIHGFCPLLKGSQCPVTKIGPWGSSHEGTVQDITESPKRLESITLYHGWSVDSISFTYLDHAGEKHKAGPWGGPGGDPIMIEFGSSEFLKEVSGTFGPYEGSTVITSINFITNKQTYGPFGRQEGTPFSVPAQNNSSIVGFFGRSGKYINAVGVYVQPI

OsJAC1 [4] = biological target: T2, OsJAC1; assay: nano differential scanning fluorimetry; type: binding; conditions: 50 mM sugar, 4 mM DTT, 50 mM KPi pH 7.4; TM1 = JRL domain transition
JRL domain of OsJAC1 = biological target: T3, JRL domain of OsJAC1 (Oryza sativa, UniProt Q306J3); assay: nano differential scanning fluorimetry; type: binding; conditions: 50 mM sugar, 4 mM DTT, 50 mM KPi pH 7.4; 1:1 mixture with DIR domain
T3 construct: gene JAC1; isolated jacalin-related lectin domain QCPVTKIGPWGSSHEG...INAVGVYVQPI; N-terminal His6 tag and thrombin site kept; E. coli BL21(DE3), pET15b(+); thermal shifts measured in 1:1 mixture with the isolated DIR domain
T3 sequence (Q306J3 160-306): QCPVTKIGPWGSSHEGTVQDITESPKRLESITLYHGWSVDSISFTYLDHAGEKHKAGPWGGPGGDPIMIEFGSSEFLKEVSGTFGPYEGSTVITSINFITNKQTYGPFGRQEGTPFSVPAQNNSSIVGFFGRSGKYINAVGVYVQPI

[5] = biological target: DIR (dirigent) domain protein of OsJAC1, His6-tagged (Oryza sativa); assay: SEC; HiLoad 16/600 Superdex 200 pg; 50 mM KPi pH 7.4, 300 mM NaCl; 1 mL of 10 mg/mL protein injected, 1 mL/min; apparent masses from calibration proteins
[6] = biological target: the molecule itself; assay: dynamic light scattering; OsJAC1 1.1 mg/mL in 15 mM TRIS-HCl pH 7.4, alone or with 150 mM CaCl2, 50 mM lactose, 150 mM MgSO4 or 4 mM DTT; apparent molecular masses

Question: How did the dTM2 (DIR domain of OsJAC1 [1]) turn out when `OC[C@H]1O[C@@H](O[C@@H]2[C@H](O)[C@@H](O)C(O)O[C@@H]2CO)[C@H](O)[C@@H](O)[C@H]1O` (some centres unmarked) [galactobiose] was run?
Answer: galactobiose (DIR domain) and laminaribiose (JRL domain), caused major shifts in the CD spectra

Question: For `OC[C@H]1OC(O)[C@H](O)[C@@H](O)[C@H]1O` (some centres unmarked) [galactose], which dTM2 (DIR domain of OsJAC1 [2]; printed as up to) is on record?
Answer: ~ 3 K

Question: And the dTM2 (OsJAC1 [3]; printed as up to)?
Answer: ~ 2 K

Question: With `OC[C@H]1OC(O)[C@H](O)[C@@H](O)[C@@H]1O` (some centres unmarked) [glucose] as the molecule, how does the dTM1 (OsJAC1 [4]) read?
Answer: 1 K

Question: What about the dTM1 (JRL domain of OsJAC1) of the same molecule?
Answer: 1 K

Question: `OC[C@H]1O[C@@H](O[C@H]2[C@H](O)[C@@H](O)C(O)O[C@@H]2CO)[C@H](O)[C@@H](O)[C@H]1O` (some centres unmarked) [lactose] was tested. Which dTM2 (DIR domain of OsJAC1 [2]) did it give?
Answer: (e.g., galactose and lactose) had a positive impact on TM2 of the DIR domain

Question: What about the dTM2 (OsJAC1 [3]) of the same molecule?
Answer: (e.g., galactose and lactose) had a positive impact on TM2 of the DIR domain

Question: `OC[C@H]1OC(O)[C@@H](O)[C@@H](O)[C@@H]1O` (some centres unmarked) [mannose] was tested. Which dTM1 (OsJAC1 [4]) did it give?
Answer: 1 K

Question: What about the dTM1 (JRL domain of OsJAC1) of the same molecule?
Answer: 1 K

Question: Which stoichiometry N [5] does the source give for “DIR (dirigent) domain protein of OsJAC1, His6-tagged (domain or fragment)” here?
Answer: 2 and 4

B1: monocot chimeric jacalin OsJAC1 from Oryza sativa, full-length protein, His6-tagged (natural protein)
chain: T2 sequence (Q306J3 1-306)
notes: OsJAC1 of rice (Oryza sativa), full-length protein; numbers count on: the His6-tagged construct as printed (23 tag and linker residues before M24); no cleavage of the tag is described; also called full-length OsJAC1; chimeric lectin OsJAC1; source: E. coli BL21(DE3), purified (IMAC on Ni-NTA, SEC); not shown: His6, N-terminal, kept
Question: Does B1 bind [6]?
Answer: binds
